Results taken from patent US11319309B2, “Cyclohexyl acid isoxazole azines as LPA antagonists” (BRISTOL-MYERS SQUIBB COMPANY, priority 2017, dated 2022).

system: UUO mice; assay: not given; conditions: UUO mice treated with antagonist, compared with LPA1 (-/-) mice; cited from earlier work

SMILES | development of renal fibrosis
Cc1noc(-c2ccc(CSCCC(=O)O)cc2)c1NC(=O)OC(C)c1ccccc1Cl (stereo not shown) [Ki16425] | closely resembled the profile of LPA1 (−/−) mice

system: pancreatic cancer cell lines; assay: not given; conditions: highly peritoneal metastatic pancreatic cancer cell line (Yamada et al. 2004); cited from earlier work

SMILES | LPA-induced and ascites-induced invasion activity
Cc1noc(-c2ccc(CSCCC(=O)O)cc2)c1NC(=O)OC(C)c1ccccc1Cl (stereo not shown) [Ki16425] | blocked

same assay, conditions: pancreatic cancer cell lines (Yamada et al. 2004); cited from earlier work

SMILES | in vitro migration in response to LPA and peritoneal fluid (ascites)
Cc1noc(-c2ccc(CSCCC(=O)O)cc2)c1NC(=O)OC(C)c1ccccc1Cl (stereo not shown) [Ki16425] | effectively blocked

system: human foetal lung fibroblasts; assay: not given; conditions: induced by BAL obtained from IPF patients (Tager et al. 2008); cited from earlier work

SMILES | chemotaxis of human foetal lung fibroblasts
Cc1noc(-c2ccc(CSCCC(=O)O)cc2)c1NC(=O)OC(C)c1ccccc1Cl (stereo not shown) [Ki16425] | blocked

system: IPF patients; assay: not given; conditions: 26-week clinical trial, IPF patients (Palmer et al., Chest 2018); cited from earlier work

SMILES | rate of FVC (forced vital capacity) decline
Cc1noc(-c2ccc(-c3ccc(C4(C(=O)O)CC4)cc3)cc2)c1NC(=O)O[C@H](C)c1ccccc1 [BMS-986020] | significantly reduce

biological target: T1, human LPA1 (Homo sapiens, UniProt Q92633); assay: LPA1 functional antagonist assay (calcium flux); type: cell-based; conditions: CHO cells overexpressing human LPA1; inhibition of calcium flux induced by 10 nM LPA; read-out: hLPA1 IC50
T1 construct: expressed in transfected cells; host or cells: Chinese hamster ovary (CHO) cells
T1 sequence (Q92633 whole entry): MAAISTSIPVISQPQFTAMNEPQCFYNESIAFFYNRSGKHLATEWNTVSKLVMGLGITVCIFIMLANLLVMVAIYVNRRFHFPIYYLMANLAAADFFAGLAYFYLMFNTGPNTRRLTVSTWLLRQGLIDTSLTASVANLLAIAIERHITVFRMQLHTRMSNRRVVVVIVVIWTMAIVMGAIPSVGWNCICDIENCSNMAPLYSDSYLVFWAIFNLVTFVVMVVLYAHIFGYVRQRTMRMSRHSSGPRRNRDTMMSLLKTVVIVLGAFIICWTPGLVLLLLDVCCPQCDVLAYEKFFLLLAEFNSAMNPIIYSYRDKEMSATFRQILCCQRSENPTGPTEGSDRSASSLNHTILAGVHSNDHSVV
Experimental: The effectiveness of compounds of the present invention as LPA1 inhibitors can be determined in an LPA1 functional antagonist assay as follows:
Chinese hamster ovary cells overexpressing human LPA1 were plated overnight (15,000 cells/well) in poly-D-lysine coated 384-well microplates (Greiner bio-one, Cat #781946) in DMEM/F12 medium (Gibco, Cat #11039). Following overnight culture, cells were loaded with calcium indicator dye (AAT Bioquest Inc, Cat #34601) for 30 minutes at 37° C. The cells were then equilibrated to room temperature for 30 minutes before the assay. Test compounds solubilized in DMSO were transferred to 384 well non-binding surface plates (Corning, Cat #3575) using the Labcyte Echo acoustic dispense and diluted with assay buffer [1X HBSS with calcium/magnesium (Gibco Cat #14025-092), 20 mM HEPES (Gibco Cat #15630-080) and 0.1% fatty acid free BSA (Sigma Cat # A9205)] to a final concentration of 0.5% DMSO. Diluted compounds were added to the cells by FDSS6000 (Hamamatsu) at final concentrations ranging from 0.08 nM to 5 μM. and were then incubated for 20 min at room temperature at which time LPA (Avanti Polar Lipids Cat #857130C) was added at final concentrations of 10 nM to stimulate the cells. The compound IC50 value was defined as the concentration of test compound which inhibited 50% of the calcium flux induced by LPA alone. IC50 values were determined by fitting data to a 4-parameter logistic equation (GraphPad Prism, San Diego Calif.).

SMILES | IC50 [nM]
Cc1nc(-c2onc(C)c2CNc2ncnc(C(C)C)n2)ccc1O[C@H]1CCC[C@H](C(=O)O)C1 [Example 2, (1 S,3 S)-3-((6-(4-(((4-isopropyl-1,3,5-triazin-2-yl)amino)methyl)-3-methylisoxazol-5-yl)-2-methylpyridin-3-yl)oxy)cyclohexane-1-carboxylic Acid] | 43
Cc1noc(-c2ccc(O[C@H]3CCC[C@H](C(=O)O)C3)cn2)c1CNc1cc(-c2ccccc2)ccn1 [Example 5] | 21
Cc1cc(-c2ccccc2)nc(NCc2c(C)noc2-c2ccc(O[C@H]3CCC[C@H](C(=O)O)C3)cn2)n1 [Example 8] | 16
Cc1noc(-c2ccc(O[C@H]3CCC[C@@H](C(=O)O)C3)cn2)c1CNc1nccc(-c2ccccc2)n1 [Example 4] | 39
Cc1noc(-c2ccc(O[C@H]3CCC[C@H](C(=O)O)C3)cn2)c1CNc1nccc(C2CC2)n1 [Example 10] | 18
Cc1noc(-c2ccc(O[C@H]3CCC[C@H](C(=O)O)C3)cn2)c1CNc1nccc(Oc2ccccc2)n1 [Example 7] | 6
Cc1noc(-c2ccc(O[C@H]3CCC[C@H](C(=O)O)C3)cn2)c1CNc1nccc(-c2ccccc2)n1 [Example 3] | 18
Cc1cc(OC(C)C)nc(NCc2c(C)noc2-c2ccc(O[C@H]3CCC[C@H](C(=O)O)C3)cn2)n1 [Example 11] | 17
Cc1noc(-c2ccc(O[C@H]3CCC[C@H](C(=O)O)C3)cn2)c1CNc1nccc(-c2ccccc2)n1 [Example 1, (1S,3S)-3-((6-(3-methyl-4-(((4-phenylpyrimidin-2-yl)amino)methyl)isoxazol-5-yl)pyridin-3-yl)oxy) cyclohexane-1-carboxylic Acid] | 14
Cc1cc(Oc2ccccc2)nc(NCc2c(C)noc2-c2ccc(O[C@H]3CCC[C@H](C(=O)O)C3)cn2)n1 [Example 9] | 20
Cc1noc(-c2ccc(O[C@H]3CCC[C@](F)(C(=O)O)C3)cn2)c1CNc1nccc(-c2ccccc2)n1 [Example 6] | 7.8

Second part, the compound after the results:

IC50 [nM] | SMILES
47 | Cc1noc(-c2ccc(O[C@@H]3CCC[C@@H](C(=O)O)C3)cc2)c1COc1nccc(-c2ccccc2)n1 (racemic) [Example 30, (±)-Trans-3-(4-(3-methyl-4-(((4-phenylpyrimidin-2-yl)oxy)methyl)isoxazol-5-yl)phenoxy)cyclohexanecarboxylic Acid]
32 | Cc1noc(-c2ccc(O[C@H]3CCC[C@H](C(=O)O)C3)cn2)c1CNc1nccc(-c2ccccn2)n1 [Example 13]
29 | Cc1noc(-c2ccc(O[C@H]3CCC[C@H](C(=O)O)C3)cn2)c1CNc1ncnc(C2CC2)n1 [Example 25]
64 | Cc1nc(-c2onc(C)c2CNc2ncnc(C3CCC3)n2)ccc1O[C@H]1CCC[C@H](C(=O)O)C1 [Example 20]
47 | Cc1noc(-c2ccc(O[C@@H]3CCC[C@@H](C(=O)O)C3)cc2)c1CNc1nccc(-c2ccccc2)n1 [Example 22]
76 | Cc1nc(-c2onc(C)c2CNc2ncnc(C3CC3)n2)ccc1O[C@H]1CCC[C@H](C(=O)O)C1 [Example 19]
38 | Cc1noc(-c2ccc(O[C@H]3CCC[C@H](C(=O)O)C3)cn2)c1CNc1ncnc(C(C)C)n1 [Example 26]
209 | Cc1noc(-c2ccc(O[C@@H]3CCC[C@H](C(=O)O)C3)cc2)c1COc1nccc(-c2ccccc2)n1 (racemic) [Example 29, (±)-Cis-3-(4-(3-Methyl-4-(((4-phenylpyrimidin-2-yl)oxy)methyl)isoxazol-5-yl)phenoxy)cyclo-hexanecarboxylic Acid]
1100 | Cc1cc(N2CCCCC2)nc(NCc2c(C)noc2-c2ccc(O[C@H]3CCC[C@H](C(=O)O)C3)cn2)n1 [Example 12]
33 | Cc1noc(-c2ccc(O[C@H]3CCC[C@H](C(=O)O)C3)cn2)c1CNc1ncnc(C2CCC2)n1 [Example 27]
4.9 | Cc1cnc(NCc2c(C)noc2-c2ccc(O[C@H]3CCC[C@H](C(=O)O)C3)cn2)nc1-c1ccccc1 [Example 15]
26 | CCOc1ccnc(NCc2c(C)noc2-c2ccc(O[C@H]3CCC[C@H](C(=O)O)C3)c(C)n2)n1 [Example 17, (1S,3S)-3-((6-(4-(((4-Ethoxypyrimidin-2-yl)amino)methyl)-3-methylisoxazol-5-yl)-2-methylpyridin-3-yl)oxy)cyclohexane-1-carboxylic Acid]
24 | Cc1noc(-c2ccc(O[C@H]3CCC[C@H](C(=O)O)C3)cn2)c1CNc1ncnc(C2CCCC2)n1 [Example 28]
60 | Cc1nc(-c2onc(C)c2CNc2ncnc(C3CCCC3)n2)ccc1O[C@H]1CCC[C@H](C(=O)O)C1 [Example 21]
14 | Cc1noc(-c2ccc(O[C@H]3CCC[C@@H](C(=O)O)C3)cn2)c1CNc1nccc(-c2ccccc2)n1 [Example 16]
64 | Cc1nc(-c2onc(C)c2CNc2nccc(-c3ccccn3)n2)ccc1O[C@H]1CCC[C@H](C(=O)O)C1 [Example 14]
88 | Cc1nc(-c2onc(C)c2CNc2ncc(F)c(NC(C)C)n2)ccc1O[C@H]1CCC[C@H](C(=O)O)C1 [Example 18]
32 | Cc1noc(-c2ccc(O[C@H]3CCC[C@H](C(=O)O)C3)cn2)c1CNc1ncc(F)c(NC(C)C)n1 [Example 24]
14 | CCOc1ccnc(NCc2c(C)noc2-c2ccc(O[C@H]3CCC[C@H](C(=O)O)C3)cn2)n1 [Example 23]

system: mouse epithelial renal cell line, MCT; assay: not given; conditions: MCT cells, co-treatment with LPA; cited from earlier work

SMILES | induction of CTGF expression by LPA
Cc1noc(-c2ccc(CSCCC(=O)O)cc2)c1NC(=O)OC(C)c1ccccc1Cl (stereo not shown) [Ki16425] | almost completely suppressed

system: nerve-injured mice; assay: not given; conditions: pretreatment, nerve-injured mice (Inoue et al. 2004); cited from earlier work

SMILES | allodynia and hyperalgesia
C[C@@H](N)[C@H]1CC[C@H](C(=O)Nc2ccncc2)CC1 [Example Y-27632] | completely abolished
